Patent US8845999B2 (The Regents of the University of California, priority 2005, dated 2014)
Where two headings read alike, the source gives them in different places. Blank lines part the entries; values can stand above or below the molecule they belong to.

Tests used:
[1] = test system: T1, Hexokinase; set-up: Hexokinase Vmax: unit not given here; details: Bessel (1972), cited from earlier work; for Hexokinase Vmax: D-glucose = 1
T1 construct: Hexokinase Ki; other: Bessel (1972); Hexokinase Vmax; D-glucose = 1; hexokinase maximum velocity lower than that for D-glucose

[2] = target: T2, human GLUT1 (Homo sapiens, UniProt P11166); details: cited from earlier work
T2 construct: host or cells: human erythrocytes (endogenous transporter)
T2 sequence (P11166 1-492): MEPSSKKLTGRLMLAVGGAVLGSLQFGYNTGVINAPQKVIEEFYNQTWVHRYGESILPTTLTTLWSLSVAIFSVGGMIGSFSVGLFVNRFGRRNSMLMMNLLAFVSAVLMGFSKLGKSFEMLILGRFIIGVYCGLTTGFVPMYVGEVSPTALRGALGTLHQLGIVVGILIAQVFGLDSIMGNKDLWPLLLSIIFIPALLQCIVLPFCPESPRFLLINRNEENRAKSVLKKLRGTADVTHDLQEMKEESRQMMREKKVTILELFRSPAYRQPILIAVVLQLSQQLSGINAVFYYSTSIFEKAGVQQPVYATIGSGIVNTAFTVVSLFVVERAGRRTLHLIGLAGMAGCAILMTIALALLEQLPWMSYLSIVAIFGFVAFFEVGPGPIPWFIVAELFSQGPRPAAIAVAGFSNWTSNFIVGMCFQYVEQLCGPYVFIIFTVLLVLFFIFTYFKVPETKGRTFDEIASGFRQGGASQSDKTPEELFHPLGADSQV

[3] = test system: Hexokinase; experiment: Hexokinase kinetics (Bessel 1972); assay type: biochemical
[4] = test system: T1, Hexokinase; experiment: Hexokinase kinetics (Bessel 1972); assay type: biochemical; details: from Table 2
[5] = test system: SGLTs; experiment: Whole body PET scan of human subjects; assay type: in vivo
Method: For a 50-70 kg person, 10 mC of methyl 4-deoxy-4-[^18F]fluoro-D-glucopyranoside dissolved in <1 ml saline is injected intravenously, and the distribution of the tracer is followed dynamically in whole body PET scans for up to 2 hours (up to 8 scans at different time intervals). SGLT activity in organs and tissues is determined from the tracer uptake. The anatomical location of tracer uptake in both normal subjects and cancer patients is determined using CT scans.
FIGS. 4 and 5 are nonlimiting examples of 2-[^18F]-FDG and Methyl 4[^18F]-FDG scans, respectively, of the same human subject.
FIG. 6 is a nonlimiting example of a whole body PET scan of a patient with Glucose-Galactose-Malabsorption (missing functional SGLT1 in their body), after being injected with Me-[18F]-4FDG.

[6] = test system: SGLTs; experiment: MicroPET images of rat's brain after intravenous injection of radiofluorinated glucose derivatives; details: same animal, images 50-70 min after intravenous injection, FIG. 7
Method: A bolus of a radiolabeled tracer is administered to a non-human primate, rodent, or other non-human mammal, intravenously or orally, and the distribution of tracer transport activity is followed by radiographic means, e.g., PET, microPET and/or SPECT. For PET, an intravenous dose of the tracer contains ˜200 μC/Kg (body weight) methyl 4-[^18F]fluoro-4-deoxy-D-glucopyranoside dissolved in <1 ml saline. […] The identity of each organ and tissue taking up the tracer is confirmed by CT scans.
FIG. 7 presents MicroPET images of a rat's brain after injection of radiofluorinated glucose derivatives. […] These experiments were performed in the same animal at three different occasions. […] The images were acquired using a Concorde 220 microPET camera (Siemens/CTI, Knoxville, Tenn.). The animal was kept under anesthesia with 2% isoflurane in oxygen during all three experiments. Injectable solutions of all radiotracers were prepared in normal saline (0.9% NaCl).

[7] = Preliminary microPET studies of brain uptake; details: rodent
[8] = target: T3, SGLT1 (Homo sapiens, UniProt P13866); experiment: Affinity for SGLT1; assay type: biochemical
T3 sequence (P13866 1-664): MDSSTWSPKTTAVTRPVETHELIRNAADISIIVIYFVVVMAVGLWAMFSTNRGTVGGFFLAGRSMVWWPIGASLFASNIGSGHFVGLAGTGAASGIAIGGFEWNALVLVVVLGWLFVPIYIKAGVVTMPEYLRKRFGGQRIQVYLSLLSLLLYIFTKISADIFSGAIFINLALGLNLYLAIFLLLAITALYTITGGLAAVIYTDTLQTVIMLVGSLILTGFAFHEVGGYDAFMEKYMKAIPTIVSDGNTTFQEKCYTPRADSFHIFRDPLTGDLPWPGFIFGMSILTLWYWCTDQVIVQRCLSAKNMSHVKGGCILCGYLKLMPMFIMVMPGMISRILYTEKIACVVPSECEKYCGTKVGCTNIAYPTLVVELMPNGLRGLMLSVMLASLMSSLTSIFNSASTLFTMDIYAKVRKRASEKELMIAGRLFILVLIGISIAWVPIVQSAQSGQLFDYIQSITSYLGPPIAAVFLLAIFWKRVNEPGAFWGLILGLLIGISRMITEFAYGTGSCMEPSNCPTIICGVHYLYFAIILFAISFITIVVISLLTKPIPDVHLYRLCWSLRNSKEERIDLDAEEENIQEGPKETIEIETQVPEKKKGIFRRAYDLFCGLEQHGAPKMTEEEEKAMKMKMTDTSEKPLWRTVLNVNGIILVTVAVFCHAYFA
Description: A [^11C]-methyl-D-glucoside has been synthesized and biologically evaluated as a tracer of sodium dependent glucose transporters. […] A commentary on this paper was published in the same issue of the journal. […] In addition, three ^18F-fluoro-n-alkyl glucosides have been synthesized and evaluated as potential substrates for sodium/glucose cotransporters. […] There are limitations with these probes in that the lifetime of [^11C] is shorter than that of [^18F]
Optionally, additional information can be obtained by also administering one or more pharmacological or other agents to the animal, and monitoring the effect of the agent(s) on tracer uptake and distribution. Nonlimiting examples of suitable agents, include sodium ion, glucose, galactose, and phlorizin. […] Any therapeutic agent can also be used to evaluate its potential role and in vivo activity on SGLTs in various organs, using in vivo competitive kinetics with the radiolabeled tracer.

[9] = test system: SGLTs; experiment: Whole body PET scan of Vervet monkey; assay type: in vivo; details: FIG. 3
Description: Scans can be conducted both with and without administering one or more pharmacological agents, e.g., sodium, phlorizin, glucose, galactose, etc.
FIG. 3 is a nonlimiting example of a methyl 4-[^18F]-FDG whole body PET scan of a Vervet monkey.

[10] = test system: sodium-dependent glucose transporters (SGLTs); experiment: Micro-PET tests in rodents and PET tests in Vervet monkeys and human volunteers: substrate specificity; assay type: in vivo; details: both anomeric forms
Description: A nonlimiting example of a radiolabeled tracer according to the present invention is methyl 4-deoxy-4-[^18F]fluoro-D-glucopyranoside (“Me-4-[^18F]-FDG”), synthesized in either of its two anomeric forms, alpha-methyl 4-[^18F]-FDG and beta-methyl 4-[^18F]-FDG, or as a racemic mixture. […] For example, Me-4-[^18F]-FDG is not a substrate for GLUT1 in the blood brain barrier. It is a novel, high affinity tracer for SGLTs in those cells expressing SGLTs.

[11] = test system: SGLT1; details: pumped into cells by SGLT1; cited from earlier work
[12] = substrate: O=C[C@H](O)[C@@H](O)[C@H](O)[C@H](O)CO; experiment: Kinetics of halogenated hexose transport by human SGLT1 expressed in Xenopus laevis oocytes, electrophysiological assay; assay type: cell-based; details: other: human SGLT1 in Xenopus laevis oocytes
Description: (§1) We have expressed human SGLT1 in the Xenopus laevis oocyte expression system and measured the kinetics of halogenated hexose transport using standard electrophysiological assays (see Diez-Sampedro et al. J. Biological Chemistry, 2001, 276: 49188-49194). Table 2 presents kinetic measurements of the SGLT1 affinities of various sugars. […] “Km.” is the Michaelis-Menten constant and refers to the ability of a sugar to be a substrate for a specific enzyme or transporter. The lower the Km, the better the substrate. “Vmax” refers to the maximum velocity of transport (or enzymatic reaction). Km is the concentration of substrate at ½ Vmax. “Ki” is an inhibition constant for a specific enzyme or transporter, obtained by competitive kinetics against a known substrate.

[13] = substrate: O=C[C@H](O)[C@@H](O)[C@@H](O)[C@H](O)CO; experiment: as above; assay type: cell-based; details: other: human SGLT1 in Xenopus laevis oocytes
Description: as §1

[14] = Barnett et al. 1973, read-out: inhibitor constants for sugar uptakes into human erythrocytes
[15] = Barnett et al. (1973), read-out: GLUT1 Ki

Molecule: OCC1OC(O)C(O)C(F)C1O (stereo not drawn)
Hexokinase Vmax [1]: 0.1 | Ki [1]: 70 mM | Ki [2, 14]: ~7 mM | Ki [2, 15]: 7 mM | substrate quality for hexokinase [3]: poor substrates for hexokinase | hexokinase affinity lower than that for D-glucose [4]: 400 fold | hexokinase maximum velocity lower than that for D-glucose [4]: 10 fold

Molecule: O=C[C@H](O)[C@@H](O)[C@@H](O)[C@H](O)CF
Ki [2, 14]: ~7 mM

Molecule: OC[C@H]1OC(F)[C@H](O)[C@@H](O)[C@@H]1O (stereo partly drawn) [1-F-1-deoxy-D-glucose, 1-[^18F]fluoro-1-deoxy-D-glucose]
Ki [2, 15]: 15 mM

substrate quality for hexokinase [3]: poor substrates for hexokinase
Molecule: OC[C@H]1OC([18F])[C@H](O)[C@@H](O)[C@@H]1O (stereo partly drawn) [1-F-1-deoxy-D-glucose, 1-[^18F]fluoro-1-deoxy-D-glucose]

Molecule: OC[C@H]1OC(O)[C@H](F)[C@@H](O)[C@@H]1O (stereo partly drawn) [2-F-2-deoxy-D-glucose, 2-deoxy-2-[^18F]fluoro-D-glucose]
Ki [1]: 0.2 mM | Ki [2, 15]: 3.6 mM

Molecule: OC[C@H]1OC(O)[C@H]([18F])[C@@H](O)[C@@H]1O (stereo partly drawn) [2-F-2-deoxy-D-glucose, 2-deoxy-2-[^18F]fluoro-D-glucose]
accumulation in the brain and elimination into the urinary bladder, PET ([5]; normal human subject, FIGS. 4 and 5): accumulated in the brain and eliminated into the urinary bladder | Hexokinase Vmax [1]: 0.5 | brain uptake / crossing of the blood-brain barrier, microPET [6]: cross the blood-brain barrier and accumulate in the brain

Molecule: O=C[C@H](O)[C@@H](O)[C@H](F)[C@H](O)CO [4-F-4-deoxy-D-glucose]
Ki [1]: 84 mM

Molecule: O=C[C@H](O)[C@@H](O)[C@H]([18F])[C@H](O)CO [4-F-4-deoxy-D-glucose]
Hexokinase Vmax [1]: 0.1 | substrate quality for hexokinase [3]: poor substrates for hexokinase | hexokinase affinity lower than that for D-glucose [4]: 400 fold | hexokinase maximum velocity lower than that for D-glucose [4]: 10 fold | uptake into brain, microPET [7]: taken up rapidly into rodent brains

Molecule: O=C[C@H](O)[C@@H](O)[C@H](O)[C@H](O)CF [6-F-4-deoxy-D-glucose]
Ki [2, 14]: 1.3 mM | Ki [2, 15]: 1 mM

Molecule: O=C[C@H](O)[C@@H](O)[C@H](O)[C@H](O)C[18F] [6-F-4-deoxy-D-glucose]
Hexokinase Vmax [1]: 0 | substrate quality for hexokinase [3]: poor substrates for hexokinase

Molecule: O=C[C@H](O)[C@@H](O)[C@@H](O)[C@H](O)CO [D-galactose]
Ki [2, 15]: 90 mM

Molecule: O=C[C@H](O)[C@@H](O)[C@H](O)[C@H](O)CO [D-glucose]
Hexokinase Vmax [1]: 1 | Ki [1]: 0.2 mM | Ki [2, 14]: ~7 mM | Ki [2, 15]: 6 mM

Molecule: COC1O[C@H](CO)[C@@H](F)[C@H](O)[C@H]1O (stereo partly drawn) [Me-4-[^18F]-FDG, methyl 4-deoxy-4-[^18F]fluoro-D-glucopyranoside]
Km [8]: 50 µM

Molecule: COC1O[C@H](CO)[C@@H]([18F])[C@H](O)[C@H]1O (stereo partly drawn) [Me-4-[^18F]-FDG, methyl 4-deoxy-4-[^18F]fluoro-D-glucopyranoside]
tracer distribution, whole body PET [9]: accumulated in the liver, heart, and kidneys, but not in the brain and little in the urinary bladder | excretion into the urinary bladder, whole body PET ([5]; patient with Glucose-Galactose-Malabsorption (missing functional SGLT1), FIG. 6): excretion of the tracer into the urinary bladder | substrate for SGLTs / GLUTs [10]: substrate for sodium-dependent glucose transporters (SGLTs), but not a substrate for GLUTs | affinity for SGLT1 [8]: 50 µM | brain uptake / crossing of the blood-brain barrier, microPET [6]: lack of brain uptake

Molecule: CO[C@H]1O[C@H](CO)[C@@H](O)[C@H](O)[C@H]1O [alpha-methyl-D-glucopyranoside]
concentration in cells above plasma concentrations [11]: ≤ 800 fold

B1: human SGLT1 (Homo sapiens) (protein)
chain: T3 sequence (P13866 1-664)
notes: expressed in transfected cells; host or cells: Xenopus laevis oocytes
Km [12]: 500 µM | Km [13]: 600 µM
